1 compound from ChEMBL document CHEMBL1122370 (J Med Chem, 1983) can be followed below.

The test system of assay [1] is Mus musculus. Nature of the assay: Average weight of the mouse after treating with 40 mg/kg dose for 1 day. The assay is classed as functional. The arrangement: unit not given here.
In assay [2] the test system is Mus musculus. Nature of the assay: Average weight change in mouse after treating with 40 mg/kg dose for 7 days. In kind it is functional.
Assay [3] has as its system L1210. Nature of the assay: In vivo antitumor activity against L1210 leukemia in 5 mice measured as T/C values(days); T/C = 17/9. The assay is classed as functional, Mus musculus.
For assay [4], the system named is L1210. Nature of the assay: In vivo antitumor activity against L1210 leukemia in 5 mice measured as median survival range at 10 mg/kg; Value ranges from (11-13). The assay is classed as functional, Mus musculus.
In assay [5] the test system is L1210. Nature of the assay: In vivo antitumor activity against L1210 leukemia in 5 mice measured as Increased life span at 20 mg/kg. The assay is classed as functional. The conditions noted are these: Mus musculus.
Assay [6] has as its system L1210. Nature of the assay: In vivo antitumor activity against L1210 leukemia in 12 mice measured as T/C values; T/C = 12/9. In kind it is functional, Mus musculus.
The test system of assay [7] is Mus musculus. Nature of the assay: Average weight change in mouse after treating with 20 mg/kg dose for 7 days. In kind it is functional. Also noted: unit not given beside the values.
The test system of assay [8] is Mus musculus. Nature of the assay: Average weight change in mouse after treating with 10 mg/kg dose for 7 days. The assay is classed as functional.
In assay [9] the test system is Mus musculus. Nature of the assay: Average weight of the mouse after treating with 10 mg/kg dose for 1 day. The assay is classed as functional. Also noted: unit not given here.
Assay [10] concerns L1210. Nature of the assay: In vivo antitumor activity against L1210 leukemia in 5 mice measured as Increased life span at 40 mg/kg. The settings on record: Mus musculus. In kind it is functional.
For assay [11], the system named is Mus musculus. Nature of the assay: Average weight of the mouse after treating with 20 mg/kg dose for 1 day. The arrangement: unit not given here. In kind it is functional.
Assay [12] deals with L1210. Nature of the assay: In vivo anti tumor activity against L1210 leukemia in 5 mice measured as Increased life span at 10 mg/kg. The assay is classed as functional. The settings on record: Mus musculus.
Assay [13] concerns L1210. Nature of the assay: In vivo antitumor activity against L1210 leukemia in 5 mice measured as median survival range at 20 mg/kg; Value ranges from (12-16). The assay is classed as functional, Mus musculus.
Assay [14] concerns L1210. Nature of the assay: In vivo antitumor activity against L1210 leukemia in 14 mice measured as T/C values(days); T/C = 14/9. In kind it is functional, Mus musculus.
The subject of assay [15] is L1210. Nature of the assay: In vivo antitumor activity against L1210 leukemia in 5 mice measured as median survival range at 40 mg/kg; Value ranges from (11-21). In kind it is functional, Mus musculus.

In the case of `CC(C)CCOC(=O)CCC(NC(=O)c1ccc(N(C)Cc2cnc3nc(N)nc(N)c3n2)cc1)C(=O)OCCC(C)C` (stereo not given), the Average weight is given as 23.2 with Mus musculus [1], 21.9 with Mus musculus [9] and 23.7 in the assay with Mus musculus [11]. The values for the Weight change with Mus musculus [2], with Mus musculus [7] and in the assay on Mus musculus [8] were 1, 1.9 and 3, respectively. Moreover, the T/C in the assay with L1210 [3] worked out at 17; with L1210 [6], 12; in the assay on L1210 [14] it was 14. The Range is 13 with L1210 [4], 16 in the assay with L1210 [13] and 21 with L1210 [15]. Moreover, the ILS at 20 mg/kg in the assay on L1210 [5] came out at 33%. The compound further displayed an ILS at 40 mg/kg in the assay on L1210 [10] of 88%. The same compound registered an ILS at 10 mg/kg with L1210 [12] of 33%.
